Consider 1 molecule from patent publication US20140011822A1, “METHODS AND MATERIALS FOR REDUCING VENOUS STENOSIS FORMATION OF AN ARTERIOVENOUS FISTULA OR GRAFT” (priority 2011, published 2014).

One assay concerns MMP-2. Kind of assay: RT-PCR for MMP-2 in kidneys, simvastatin. In kind it is in vivo, mice. The method, then: Animals were housed at 22° C. temperature, 41% relative humidity, and 12-/12-hour light/dark cycles. Animals were allowed access to water and food ad libitum. […] Sixty-eight male C57BL/6 mice (Jackson Laboratories, Bar Harbor, Me.) weighing 25-30 grams were used for the present study (FIG. 18). Chronic kidney disease was created by surgical removal of the right kidney accompanied by ligation of the arterial blood supply to the upper pole of the left kidney as described elsewhere (Misra et al., J. Vasc. Interv. Radiol., 21:1255-1261 (2010); see, also, FIG. 18A). Three weeks after nephrectomy, the animals were started on simvastatin (40 mg/kg administered i.p. three times per week) or PBS (equal amount of volume used for simvastatin i.p. controls). Simvastatin was prepared as described elsewhere (Wilson et al., Arterioscler Thromb. Vasc. Biol., 21:122-128 (2001)). […] Serum BUN and creatinine were measured by removing blood from the tail vein at baseline (before nephrectomy), at AVF creation, and at the time of sacrifice. […]
Expression for the gene of interest was determined using RT-PCR analysis as described elsewhere (Misra et al., J. Vasc. Interv. Radiol., 21:1255-1261 (2010)). […]

The subject of the next assay is MMP-9. In words: RT-PCR for MMP-9 in kidneys, simvastatin. In kind it is in vivo, mice. The method, then:
Animals were housed at 22° C. temperature, 41% relative humidity, and 12-/12-hour light/dark cycles. Animals were allowed access to water and food ad libitum. […] Sixty-eight male C57BL/6 mice (Jackson Laboratories, Bar Harbor, Me.) weighing 25-30 grams were used for the present study (FIG. 18). Chronic kidney disease was created by surgical removal of the right kidney accompanied by ligation of the arterial blood supply to the upper pole of the left kidney as described elsewhere (Misra et al., J. Vasc. Interv. Radiol., 21:1255-1261 (2010); see, also, FIG. 18A). Three weeks after nephrectomy, the animals were started on simvastatin (40 mg/kg administered i.p. three times per week) or PBS (equal amount of volume used for simvastatin i.p. controls). Simvastatin was prepared as described elsewhere (Wilson et al., Arterioscler Thromb. Vasc. Biol., 21:122-128 (2001)). A week later, an AVF was created by connecting the right carotid artery to the ipsilateral jugular vein (FIG. 18B; see, also, Misra et al., J. Vasc. Interv. Radiol., 21:1255-1261 (2010) and Yang et al., J. Vasc. Interv. Radiol., 20:946-950 (2009)). Animals were sacrificed at day 7, day 14, and day 28 following AVF placement for real time polymerase chain reaction (RT-PCR) and histomorphometric analyses (FIG. 18C). Serum BUN and creatinine were measured by removing blood from the tail vein at baseline (before nephrectomy), at AVF creation, and at the time of sacrifice. […] These animals were started on simvastatin (40 mg/kg i.p.) or PBS (equal amount of volume i.p.) every other day one week before AVF placement and then sacrificed four weeks after fistula placement for histomorphometric analysis.
The tissue was stored in RNA stabilizing reagent (Qiagen, Gaithersburg, Md.) as per the manufacturer's guidelines. To isolate the RNA, the specimens were homogenized, and total RNA was isolated using RNeasy mini kit (Qiagen) (Misra et al., J. Vasc. Interv. Radiol., 21:1255-1261 (2010); and Yang et al., J. Vasc. Interv. Radiol., 20:946-950 (2009)).
Expression for the gene of interest was determined using RT-PCR analysis as described elsewhere (Misra et al., J. Vasc. Interv. Radiol., 21:1255-1261 (2010)). Commercial PCR primers for the gene of interest were purchased from SA Biosciences (Frederick, Md.).

Assay [1] deals with apoptosis at the outflow vein. In words: TUNEL staining of outflow vein, simvastatin. In kind it is in vivo, mice. The following applies: for average increase of TUNEL staining: vs control. The protocol: TUNEL staining was performed on paraffin-embedded sections from the outflow vein after treatment with either simvastatin or controls as specified by the manufacturer (DeadEnd Colorimetric tunnel assay system, G7360, Promega, Madison, Wis.).
(§1) Morphometric analysis was performed as described elsewhere (Misra et al., Kidney Int., 68:2890-2900 (2005); and Misra et al., Am. J. Physiol. Heart Circ. Physiol., 294:H2219-2230 (2008)). Briefly, the outflow vein was sectioned into multiple contiguous 4-μm paraffin embedded sections. Typically, 2 to 3 sections per animal for each group (simvastatin and controls) and time point (day 14 and day 28) were photographed and then quantified using KS 400 (Carl Zeiss, Inc., Thornwood, N.Y.) semiquantitative program.

The subject of the next assay is Ki-67. Kind of assay: Ki-67 staining of outflow vein, simvastatin. The assay is classed as in vivo, mice. The following applies: vs control. The method, then:
Multiple serial four-micrometer sections were stained and analyzed. Cellular proliferation was determined by staining for Ki-67 on sections removed from the outflow vein for simvastatin treated vessels or control groups. Smooth muscle density (α-SMA) or proliferation index (Ki-67) was determined by staining on sections removed from the outflow vein by performing quantification at the different time points. Immunohistochemistry for Ki-67 and α-SMA was performed on paraffin-embedded sections from the outflow vein after transfection with either simvastatin or controls using the Vectastain Elite ABC system (Vector Laboratories, Burlingame, Calif., USA). The following antibodies were used: mouse monoclonal antibody Ki-67 (DAKO, Carpentaria, Calif.; 1:400) or rabbit polyclonal antibody to mouse for α-SMA (Abcam, Cambridge, Mass.; 1:400).
as §1

A further assay has as its system α-SMA. Kind of assay: Western blot of α-SMA in NIH 3T3 cells, simvastatin. To be noted: 10 μM, 24 hours of hypoxia, vs control. The assay is classed as cell-based. The protocol:
(§2) One hundred thousand NIH 3T3 cells were treated with simvastatin (1 μM, 5 μM, or 10 μM) or controls and made hypoxic for 24 hours as described elsewhere (Misra et al., J. Vasc. Interv. Radiol., 21:896-902 (2010)).
The differentiation of fibroblasts to myofibroblasts was assessed by performing Western blot analysis for α-SMA. The cultured cells were processed for Western analysis using rabbit polyclonal antibody as described elsewhere (Misra et al., J. Vasc. Interv. Radiol., 19:252-259 (2008)).

Another assay relates to NIH 3T3 cells. Kind of assay: Proliferation (thymidine incorporation) assay in NIH 3T3 cells, simvastatin. In kind it is cell-based. The method, then: as §2
One hundred thousand NIH 3T3 cells were treated with simvastatin or controls and made hypoxic for 24 hours. Next, they were seeded in a 6-well plate and cultured for 24 hours in DMEM medium. After 20 hours, […] of (^3H) thymidine was added to each well. Four hours later, the cells were washed with chilled PBS, fixed with 100% cold methanol, and collected for measurement of trichloroacetic acid-precipitable for radioactivity. Experiments were repeated three times for each time point.

Another assay relates to caspase 3. Kind of assay: Caspase 3 activity in NIH 3T3 cells, simvastatin. The assay is classed as cell-based. To be noted: 24 hours hypoxia. The protocol: as §2
Apoptosis was assessed using an ELISA assay for caspase 3. Cellular protein was extracted from one hundred thousand cultured cells as described elsewhere (Misra et al., J. Vasc. Interv. Radiol., 21:896-902 (2010)). The enzymatic activity of caspase 3 was accessed by Caspase Glo assay (G811C, Promega, Madison, Wis.).

In the case of `CCC(C)(C)C(=O)O[C@H]1C[C@@H](C)C=C2C=C[C@H](C)[C@H](CC[C@@H]3C[C@@H](O)CC(=O)O3)[C@H]21` [simvastatin], in the assay with MMP-2 (day 28), the “expression of MMP-2” value was 0.78±0.09. Besides, in the assay with MMP-2 (day 28, vs control), the “Average reduction of MMP-2 expression” value is 42%. Also, the “average gene expression of MMP-9” value worked out at 0.42±0.13 in the assay on MMP-9 (day 7) and 0.64±0.09 in the assay with MMP-9 (day 28). For the same molecule, the “Average reduction of MMP-9 gene expression” value with MMP-9 (day 7, vs control) is on record as 57%; in the assay on MMP-9 (day 28, vs control), 44%. Besides, the “average density of cells staining positive for TUNEL” value came to 25.26±2.78 in assay [1] (day 14) and 30.17±1.8 in assay [1] (day 28). Further, the “average increase of TUNEL staining” value came to 366% in assay [1] (day 14) and 561% in assay [1] (day 28). Moreover, the “increase of TUNEL staining” value in assay [1] (day 28 normal, vs control (P=0.0136)) turned out to be 326%. In addition, the “average reduction of Ki-67 density” value in the assay with Ki-67 (day 14) was 66%; in the assay with Ki-67 (day 28) it was 76%; with Ki-67 (day 28 normal), 77%. In addition, in the assay on α-SMA, the “Average reduction in α-SMA production (Western blot)” value is reported as 56%. Also, the “average reduction in proliferative ability” value in the assay on NIH 3T3 cells (5 μM, 24 hours hypoxia) is recorded as 83%; with NIH 3T3 cells (5 μM, 24 hours normoxia), 75%; in the assay with NIH 3T3 cells (10 μM, 24 hours hypoxia) it was 92%; in the assay with NIH 3T3 cells (10 μM, 24 hours normoxia), 94%. For the same molecule, the results for the “average increase in caspase 3 activity” value in the assay with caspase 3 (5 μM) and in the assay on caspase 3 (10 μM) were 281% and 1103%, respectively.
